Laboratory results taken from ChEMBL document CHEMBL6109109, “Fatty acid binding protein 5 inhibitors as novel anticancer agents against metastatic castration-resistant prostate cancer” (Bioorg Med Chem, 2025).

How the values were obtained:
PC-3 = test: Cytotoxicity against human PC-3 cells assessed as reduction in cell viability measured after 72 hrs by MTT assay; format: functional, cell-based; conditions: PC-3, 72 h
[1] = Binding affinity to FABP5 (unknown origin); set-up: species or system Homo sapiens
[2] = Cytotoxicity against mouse RCap cells assessed as reduction in cell viability measured after 72 hrs by MTT assay; format: functional, cell-based
[3] = Cytotoxicity against human WI-38 cells assessed as reduction in cell viability measured after 72 hrs by MTT assay; format: toxicity, cell-based

## O=C(O)[C@H]1[C@H](c2ccccc2)[C@H](C(=O)OC2Cc3ccccc3C2)[C@H]1c1ccccc1
PC-3
  IC50: 37.6 µM

## O=C(O)[C@H]1[C@H](c2ccccc2)[C@H](C(=O)Oc2ccccc2-c2ccccc2)[C@H]1c1ccccc1
PC-3
  IC50: 16.2 µM

## COc1ccccc1[C@H]1[C@H](C(=O)O)[C@H](c2ccccc2OC)[C@H]1C(=O)OC1Cc2ccccc2C1
PC-3
  IC50: 16.5 µM

## O=C(O)[C@H]1[C@H](c2ccccc2)[C@H](C(=O)Oc2cccc(C3=CCOCC3)c2)[C@H]1c1ccccc1
[1]
  Ki: 1.75 µM
PC-3
  IC50: 52 µM

## COc1ccccc1[C@H]1[C@H](C(=O)O)[C@H](c2ccccc2OC)[C@H]1C(=O)Oc1ccccc1-c1ccccc1
[1]
  Ki: 1.59 µM
PC-3
  IC50: 19.8 µM

## O=C1CCc2cc(-c3cccc(OC(=O)[C@H]4[C@@H](c5ccccc5)[C@H](C(=O)O)[C@@H]4c4ccccc4)c3)ccc2N1
[2]
  IC50: 12.6 µM
[3]
  IC50 at 72 h: 42.8 µM
[1]
  Ki: 0.74 µM
PC-3
  IC50: 11.4 µM

## COc1ccccc1[C@H]1[C@H](C(=O)O)[C@H](c2ccccc2OC)[C@H]1C(=O)OCC1(F)c2ccccc2-c2ccccc21
[2]
  IC50: 13 µM
[3]
  IC50 at 72 h: 55.6 µM
[1]
  Ki: 1.83 µM
PC-3
  IC50: 11.8 µM

## COc1ccccc1[C@H]1[C@H](C(=O)O)[C@H](c2ccccc2OC)[C@H]1C(=O)OCCc1ccccc1-c1ccccc1
[2]
  IC50: 14.2 µM
[3]
  IC50 at 72 h: 51 µM
[1]
  Ki: 0.51 µM
PC-3
  IC50: 11.9 µM

## COc1ccccc1[C@H]1[C@H](C(=O)O)[C@H](c2ccccc2OC)[C@@H]1C(=O)Oc1ccc(OC)c2ccccc12
[1]
  Ki: 26.6 µM
PC-3
  IC50: 19.6 µM

## COc1ccccc1[C@H]1[C@H](C(=O)O)[C@H](c2ccccc2OC)[C@H]1C(=O)Oc1ccccc1-c1ccc2c(c1)OCO2
[1]
  Ki: 1.59 µM
PC-3
  IC50: 19.9 µM

## O=C(O)[C@H]1[C@H](c2ccccc2)[C@@H](C(=O)Oc2cc(-c3ccc4c(c3)OCO4)ccc2Br)[C@H]1c1ccccc1
[2]
  IC50: 9.98 µM
[3]
  IC50 at 72 h: 25.9 µM
[1]
  Ki: 0.89 µM
PC-3
  IC50: 7.72 µM

## Cn1cc(-c2ccc(-c3ccc4c(c3)OCO4)cc2OC(=O)[C@H]2[C@@H](c3ccccc3)[C@@H](C(=O)O)[C@@H]2c2ccccc2)cn1
[2]
  IC50: 6.16 µM
[3]
  IC50 at 72 h: 26.4 µM
[1]
  Ki: 0.76 µM
PC-3
  IC50: 10.3 µM

## O=C(O)[C@H]1[C@H](c2ccccc2)[C@H](C(=O)Oc2cc(-c3ccc4c(c3)OCCO4)cc3c2OCCO3)[C@H]1c1ccccc1
[2]
  IC50: 13.5 µM
[3]
  IC50 at 72 h: 68.5 µM
[1]
  Ki: 1.15 µM
PC-3
  IC50: 11.8 µM

## O=C1Cc2ccc(-c3ccccc3OC(=O)[C@H]3[C@@H](c4ccccc4)[C@H](C(=O)O)[C@@H]3c3ccccc3)cc2N1
[1]
  Ki: 0.29 µM
PC-3
  IC50: 63.9 µM

## O=C(O)[C@H]1[C@H](c2ccccc2)[C@@H](C(=O)Oc2cc(-c3ccc4c(c3)OCCO4)cc3c2OCCO3)[C@H]1c1ccccc1
[1]
  Ki: 3.5 µM
PC-3
  IC50: 20.7 µM

## O=C(O)[C@@H]1[C@@H](c2ccccc2)[C@H](C(=O)OCc2ccccc2-c2ccccc2)[C@H]1c1ccccc1
[1]
  Ki: 1.65 µM
PC-3
  IC50: 22.1 µM

## COc1ccccc1[C@H]1[C@H](C(=O)O)[C@H](c2ccccc2OC)[C@H]1C(=O)Oc1cc(-c2ccc3c(c2)OCO3)ccc1-c1cncnc1
[2]
  IC50: 20.5 µM
[3]
  IC50 at 72 h: 66.4 µM
[1]
  Ki: 0.64 µM
PC-3
  IC50: 10.6 µM

## COc1ccccc1[C@H]1[C@H](C(=O)O)[C@H](c2ccccc2OC)[C@H]1C(=O)Oc1cc(-c2ccc3c(c2)OCO3)ccc1Br
[2]
  IC50: 8.48 µM
[3]
  IC50 at 72 h: 15.6 µM
[1]
  Ki: 0.35 µM
PC-3
  IC50: 10.4 µM

## O=C(O)[C@H]1[C@H](c2ccccc2)[C@H](C(=O)Oc2cc(-c3ccc4c(c3)OCO4)ccc2-c2cncnc2)[C@H]1c1ccccc1
[2]
  IC50: 30.2 µM
[3]
  IC50 at 72 h: 95.5 µM
PC-3
  IC50: 12.5 µM

## C#Cc1ccc(-c2ccc3c(c2)OCO3)cc1OC(=O)[C@H]1[C@@H](c2ccccc2OC)[C@@H](C(=O)O)[C@@H]1c1ccccc1OC
[1]
  Ki: 1.68 µM
PC-3
  IC50: 21.8 µM

## N#CCc1ccc(-c2ccccc2)cc1OC(=O)[C@H]1[C@@H](c2ccccc2)[C@@H](C(=O)O)[C@@H]1c1ccccc1
[2]
  IC50: 30.1 µM
[3]
  IC50 at 72 h: 55.2 µM
[1]
  Ki: 2.37 µM
PC-3
  IC50: 12.3 µM

## COc1ccccc1[C@H]1[C@H](C(=O)O)[C@H](c2ccccc2OC)[C@H]1C(=O)Oc1cc(-c2ccc3c(c2)OCO3)ccc1-c1cnn(C)c1
[2]
  IC50: 7.94 µM
[3]
  IC50 at 72 h: 29.8 µM
[1]
  Ki: 0.54 µM
PC-3
  IC50: 5.71 µM

## O=C(O)[C@H]1[C@H](c2ccccc2)[C@@H](C(=O)Oc2cccc(-c3ccc4c(c3)OCCO4)c2)[C@H]1c1ccccc1
[2]
  IC50: 13.6 µM
[3]
  IC50 at 72 h: 31.8 µM
[1]
  Ki: 2.47 µM
PC-3
  IC50: 9.5 µM

## N#CCc1ccc(-c2ccccc2)cc1OC(=O)[C@H]1[C@@H](c2ccccc2)[C@H](C(=O)O)[C@@H]1c1ccccc1
[2]
  IC50: 22.4 µM
[3]
  IC50 at 72 h: 47.3 µM
[1]
  Ki: 0.64 µM
PC-3
  IC50: 9.47 µM

## C#Cc1ccc(-c2ccc3c(c2)OCO3)cc1OC(=O)[C@H]1[C@@H](c2ccccc2OC)[C@H](C(=O)O)[C@@H]1c1ccccc1OC
[2]
  IC50: 14.8 µM
[3]
  IC50 at 72 h: 72.1 µM
[1]
  Ki: 1.21 µM
PC-3
  IC50: 11.4 µM

## Cn1cc(-c2ccc(-c3ccc4c(c3)OCO4)cc2OC(=O)[C@H]2[C@@H](c3ccccc3)[C@H](C(=O)O)[C@@H]2c2ccccc2)cn1
[2]
  IC50: 8.82 µM
[3]
  IC50 at 72 h: 24.1 µM
[1]
  Ki: 0.29 µM
PC-3
  IC50: 9.66 µM

## O=C(O)[C@H]1[C@H](c2ccccc2)[C@H](C(=O)Oc2ccc3cc(-c4cncnc4)ccc3c2)[C@H]1c1ccccc1
[2]
  IC50: 18.7 µM
[3]
  IC50 at 72 h: 91.9 µM
PC-3
  IC50: 12.1 µM

## O=C(O)[C@H]1[C@H](c2ccccc2)[C@H](C(=O)Oc2cc(-c3ccc4c(c3)OCO4)ccc2Br)[C@H]1c1ccccc1
[2]
  IC50: 14.8 µM
[3]
  IC50 at 72 h: 24.8 µM
[1]
  Ki: 0.37 µM
PC-3
  IC50: 9.36 µM

## O=C(O)[C@@H]1[C@@H](c2ccccc2)[C@H](C(=O)Oc2cccc3ccccc23)[C@H]1c1ccccc1
PC-3
  IC50: 23.8 µM

## COc1ccccc1[C@H]1[C@H](C(=O)O)[C@H](c2ccccc2OC)[C@H]1C(=O)Oc1cccc(-c2ccc3c(c2)NC(=O)C3)c1
[1]
  Ki: 1.06 µM
PC-3
  IC50: 16.2 µM

## COc1ccccc1[C@H]1[C@H](C(=O)O)[C@H](c2ccccc2OC)[C@H]1C(=O)Oc1cc(-c2ccccc2)ccc1CC#N
[2]
  IC50: 8.31 µM
[3]
  IC50 at 72 h: 24.4 µM
[1]
  Ki: 0.81 µM
PC-3
  IC50: 7.31 µM

## O=C(O)[C@H]1[C@H](c2ccccc2)[C@@H](C(=O)Oc2cc(-c3ccc4c(c3)OCO4)ccc2-c2ccccc2)[C@H]1c1ccccc1
[2]
  IC50: 5.53 µM
[3]
  IC50 at 72 h: 22.4 µM
[1]
  Ki: 1.17 µM
PC-3
  IC50: 9.76 µM

## O=C(O)[C@H]1[C@H](c2ccccc2)[C@@H](C(=O)Oc2cc(-c3ccc4c(c3)OCO4)ccc2-c2cncnc2)[C@H]1c1ccccc1
[2]
  IC50: 2.92 µM
[3]
  IC50 at 72 h: 31.5 µM
PC-3
  IC50: 5.88 µM

## COc1ccccc1[C@H]1[C@H](C(=O)O)[C@H](c2ccccc2OC)[C@H]1C(=O)Oc1cccc(-c2ccc(C#N)cc2)c1
[2]
  IC50: 19.1 µM
[3]
  IC50 at 72 h: 26.1 µM
[1]
  Ki: 1.74 µM
PC-3
  IC50: 8.17 µM

## N#CCc1ccc(-c2ccc3c(c2)OCO3)cc1OC(=O)[C@H]1[C@@H](c2ccccc2)[C@H](C(=O)O)[C@@H]1c1ccccc1
[3]
  IC50 at 72 h: 46.3 µM
[1]
  Ki: 0.64 µM
PC-3
  IC50: 13 µM

## COc1ccccc1[C@H]1[C@H](C(=O)O)[C@H](c2ccccc2OC)[C@@H]1C(=O)Oc1cccc2ccccc12
PC-3
  IC50: 25.5 µM

## COc1ccccc1[C@H]1[C@H](C(=O)O)[C@H](c2ccccc2OC)[C@H]1C(=O)Oc1cccc(-c2ccc(O)c(O)c2)c1
[1]
  Ki: 1.25 µM
PC-3
  IC50: 40.1 µM

## COc1ccccc1[C@H]1[C@H](C(=O)O)[C@H](c2ccccc2OC)[C@H]1C(=O)Oc1cccc(-c2cccc3c2OCO3)c1
[2]
  IC50: 19.5 µM
[3]
  IC50 at 72 h: 35.1 µM
[1]
  Ki: 0.41 µM
PC-3
  IC50: 12.4 µM

## COc1ccccc1[C@H]1[C@H](C(=O)O)[C@H](c2ccccc2OC)[C@H]1C(=O)Oc1cc(-c2ccc(C#N)cc2)ccc1CC#N
[2]
  IC50: 12.4 µM
[3]
  IC50 at 72 h: 25.4 µM
[1]
  Ki: 0.77 µM
PC-3
  IC50: 6.39 µM

## CC(=O)N1CC=C(c2cccc(OC(=O)[C@H]3[C@@H](c4ccccc4)[C@@H](C(=O)O)[C@@H]3c3ccccc3)c2)CC1
[1]
  Ki: 28.9 µM
PC-3
  IC50: 67.4 µM

## O=C(O)[C@H]1[C@H](c2ccccc2)[C@H](C(=O)OCc2cccc3ccccc23)[C@H]1c1ccccc1
[1]
  Ki: 2.64 µM
PC-3
  IC50: 19.1 µM

## N#CCc1ccc(-c2ccc3c(c2)OCO3)cc1OC(=O)[C@H]1[C@@H](c2ccccc2)[C@@H](C(=O)O)[C@@H]1c1ccccc1
[3]
  IC50 at 72 h: 66.3 µM
[1]
  Ki: 1.42 µM
PC-3
  IC50: 12.8 µM

## N#Cc1ccc(-c2ccc3c(c2)OCCO3)cc1OC(=O)[C@H]1[C@@H](c2ccccc2)[C@H](C(=O)O)[C@@H]1c1ccccc1
[1]
  Ki: 0.64 µM
PC-3
  IC50: 15.1 µM

## N#Cc1ccc(-c2ccccc2OC(=O)[C@H]2[C@@H](c3ccccc3)[C@@H](C(=O)O)[C@@H]2c2ccccc2)cc1
[1]
  Ki: 1.39 µM
PC-3
  IC50: 20.5 µM

## O=C1Cc2cc(-c3cccc(OC(=O)[C@H]4[C@@H](c5ccccc5)[C@@H](C(=O)O)[C@@H]4c4ccccc4)c3)ccc2N1
[1]
  Ki: 2.21 µM
PC-3
  IC50: 20 µM

## COc1ccccc1[C@H]1[C@H](C(=O)O)[C@H](c2ccccc2OC)[C@H]1C(=O)Oc1cc(-c2ccc(C#N)cc2)ccc1-c1cncnc1
[1]
  Ki: 0.38 µM
PC-3
  IC50: 14.9 µM

## COc1ccccc1[C@H]1[C@H](C(=O)O)[C@H](c2ccccc2OC)[C@H]1C(=O)Oc1cccc(-c2ccc(F)cc2)c1
[2]
  IC50: 12.3 µM
[3]
  IC50 at 72 h: 29.2 µM
[1]
  Ki: 1.03 µM
PC-3
  IC50: 10.8 µM

## COc1ccccc1[C@H]1[C@H](C(=O)O)[C@H](c2ccccc2OC)[C@H]1C(=O)Oc1cc(-c2ccc(C#N)cc2)ccc1-c1ccccc1
[2]
  IC50: 14.5 µM
[3]
  IC50 at 72 h: > 100 µM
[1]
  Ki: 0.62 µM
PC-3
  IC50: 4.82 µM

## C#Cc1ccc(-c2ccc(C#N)cc2)cc1OC(=O)[C@H]1[C@@H](c2ccccc2OC)[C@H](C(=O)O)[C@@H]1c1ccccc1OC
[2]
  IC50: 17.4 µM
[3]
  IC50 at 72 h: > 200 µM
[1]
  Ki: 1.02 µM
PC-3
  IC50: 8.89 µM

## O=C(O)[C@H]1[C@H](c2ccccc2)[C@H](C(=O)Oc2cccc(-c3ccc(O)c(O)c3)c2)[C@H]1c1ccccc1
[1]
  Ki: 1.25 µM
PC-3
  IC50: 52.9 µM

## COc1ccccc1[C@H]1[C@H](C(=O)O)[C@H](c2ccccc2OC)[C@H]1C(=O)Oc1ccccc1-c1ccc2c(c1)OCCO2
[1]
  Ki: 2.81 µM
PC-3
  IC50: 17.8 µM
